Measurements taken from patent publication US6274715A, “Tricyclic erythromycin derivatives” (priority 1997, dated 2001).
In brackets after ≈: the same amount, converted by molar mass.

What was measured:
H. Influenza Dill AMP R = assay: In vitro antibacterial activity against H. Influenza Dill AMP R, MIC; format: cell-based; details: separate assay, unit assumed
How it was run: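 Agar dilution in Brain Heart Infusion agar, twelve successive compound dilutions, inoculated by Steers replicator with 1:100 (1:10 for slow growers) culture dilutions. Incubation 35-37° C. for 20 to 24 hours; MIC is lowest concentration giving no growth, slight haze or sparse colonies versus drug-free control.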

[1] = tested on: STAPHYLOCOCCUS AUREUS CMX 553; assay: In vitro antibacterial activity, MIC, BHI agar dilution; format: cell-based; details: S. aureus CMX 553, unit assumed
[2] = tested on: STAPHYLOCOCCUS AUREUS NCTC10649M; assay: as above; format: cell-based; details: S. aureus NCTC10649M, unit assumed
[3] = tested on: PSEUDOMONAS AERUGINOSA 5007; assay: as above; format: cell-based; details: P. aeruginosa 5007, unit assumed
[4] = tested on: STREPTOCOCCUS BOVIS A-5169; assay: as above; format: cell-based; details: S. bovis A-5169, unit assumed
ESCHERICHIA COLI JUHL = format: cell-based; details: E. coli JUHL; BHI agar; unit assumed
ESCHERICHIA COLI H560 = assay: In vitro antibacterial activity, MIC, BHI agar dilution; format: cell-based; details: E. coli H560, unit assumed
ESCHERICHIA COLI KNK 437 = format: cell-based; details: E. coli KNK 437; BHI agar; unit assumed
[5] = tested on: STREPTOCOCCUS PYOGENES PIU 2548; assay: In vitro antibacterial activity, MIC, BHI agar dilution; format: cell-based; details: S. pyogenes PIU 2548, unit assumed
[6] = tested on: MYCOBACTERIUM SMEGMATIS ATCC 114; assay: as above; format: cell-based; details: M. smegmatis ATCC 114, unit assumed
Grarn-negative bacteria = details: background statement; cited from earlier work
[7] = tested on: STAPHYLOCOCCUS AUREUS 1775; assay: In vitro antibacterial activity, MIC, BHI agar dilution; format: cell-based; details: S. aureus 1775, unit assumed
PSEUDOMONAS CEPACIA 296I = assay: as above; format: cell-based; details: P. cepacia 296I, unit assumed
[8] = tested on: STREPTOCOCCUS PYOGENES 930; assay: as above; format: cell-based; details: S. pyogenes 930, unit assumed
[9] = tested on: ENTEROBACTER AEROGENES ATCC 13048; assay: as above; format: cell-based; details: E. aerogenes ATCC 13048, unit assumed
[10] = tested on: STAPHYLOCOCCUS AUREUS ATCC 6538P; assay: as above; format: cell-based; details: S. aureus ATCC 6538P, 35-37° C., 20 to 24 hours, unit assumed
[11] = tested on: PSEUDOMONAS AERUGINOSA DPHD-2862; assay: as above; format: cell-based; details: P. aeruginosa DPHD-2862, unit assumed
ESCHERICHIA COLI DC-2 = assay: as above; format: cell-based; details: E. coli DC-2, unit assumed
STR[…] 508 = assay: as above; format: cell-based; details: S. agalactiae CMX 508, unit assumed
How it was run: (§1)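 MIC was read visually as the lowest drug level with no growth, a slight haze or sparsely isolated colonies relative to a compound-free growth control. Organisms were spotted at 1:100 dilution (1:10 for slow-growing strains) onto Brain Heart Infusion agar containing serial compound dilutions and incubated 20 to 24 hours at 35-37° C.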

M[…] ATCC 4698 = assay: as above; format: cell-based; details: M. luteus ATCC 4698, unit assumed
How it was run: as §1

M[…] ATCC 9341 = assay: as above; format: cell-based; details: M. luteus ATCC 9341, unit assumed
How it was run: as §1

EN[…] ATCC 8043 = assay: as above; format: cell-based; details: E. faecium ATCC 8043, unit assumed
How it was run: as §1

[12] = tested on: PSEUDOMONAS AERUGINOSA K799/WT; assay: as above; format: cell-based; details: P. aeruginosa K799/WT, unit assumed
[13] = tested on: STAPHYLOCOCCUS AUREUS A-5278; assay: as above; format: cell-based; details: S. aureus A-5278, unit assumed
[14] = tested on: PSEUDOMONAS AERUGINOSA DPHD-5263; assay: as above; format: cell-based; details: P. aeruginosa DPHD-5263, unit assumed
ESCHERICHIA COLI SS = assay: as above; format: cell-based; details: E. coli SS, unit assumed
[15] = tested on: PSEUDOMONAS AERUGINOSA BMH10; assay: as above; format: cell-based; details: P. aeruginosa BMH10, unit assumed
[16] = tested on: STAPHYLOCOCCUS AUREUS A5177; assay: as above; format: cell-based; details: S. aureus A5177, unit assumed
[17] = tested on: PSEUDOMONAS AERUGINOSA K799/61; assay: as above; format: cell-based; details: P. aeruginosa K799/61, unit assumed
[18] = tested on: KLEBSIELLA PNEUMONIAE ATCC 8045; assay: as above; format: cell-based; details: K. pneumoniae ATCC 8045, unit assumed
[19] = tested on: STAPHYLOCOCCUS EPIDERMIDIS 3519; format: cell-based; details: S. epidermidis 3519; BHI agar; unit assumed
[20] = tested on: STAPHYLOCOCCUS AUREUS CMX 642A; assay: In vitro antibacterial activity, MIC, BHI agar dilution; format: cell-based; details: S. aureus CMX 642A, unit assumed
[21] = tested on: PROVIDENCIA STUARTII CMX 640; format: cell-based; details: P. stuartii CMX 640; BHI agar; unit assumed
[22] = tested on: STREPTOCOCCUS PYOGENES EES61; assay: In vitro antibacterial activity, MIC, BHI agar dilution; format: cell-based; details: S. pyogenes EES61, unit assumed
CANDIDA ALBICANS CCH 442 = assay: as above; format: cell-based; details: C. albicans CCH 442, unit assumed
[23] = tested on: ACINETOBACTER CALCOACETICUS CMX 669; assay: as above; format: cell-based; details: A. calcoaceticus CMX 669, unit assumed

SMILES | MIC (H. Influenza Dill AMP R) [µg/mL] | MIC [1] [µg/mL] | MIC [2] [µg/mL] | MIC [3] [µg/mL] | MIC [4] [µg/mL] | MIC (ESCHERICHIA COLI JUHL) [µg/mL] | MIC (ESCHERICHIA COLI H560) [µg/mL] | MIC (ESCHERICHIA COLI KNK 437) [µg/mL] | MIC [5] [µg/mL] | MIC [6] [µg/mL] | MIC [7] [µg/mL] | MIC (PSEUDOMONAS CEPACIA 296I) [µg/mL] | MIC [8] [µg/mL] | MIC [9] [µg/mL] | MIC [10] [µg/mL] | MIC [11] [µg/mL] | MIC (ESCHERICHIA COLI DC-2) [µg/mL] | MIC (STR[…] 508) [µg/mL] | MIC (M[…] ATCC 4698) [µg/mL] | MIC (M[…] ATCC 9341) [µg/mL] | further results
CC[C@H]1OC(=O)[C@H](C)[C@@H](O[C@H]2C[C@@](C)(OC)[C@@H](O)[C@H](C)O2)[C@H](C)[C@@H](O[C@@H]2O[C@H](C)C[C@H](N(C)C)[C@H]2O)[C@](C)(O)C[C@@H](C)C(=O)[C@H](C)[C@@H](O)[C@]1(C)O [Ery A, Erythromycin A, reference compound] | 4 (≈ 5.45 µM) | 0.2 (≈ 0.273 µM) | 0.2 (≈ 0.273 µM) | > 100 | 0.05 (≈ 0.0681 µM) | 100 (≈ 136 µM) | 25 (≈ 34.1 µM) | 50 (≈ 68.1 µM) | 6.2 (≈ 8.45 µM) | 0.02 (≈ 0.0273 µM) | > 100 | > 100 | > 100 | 100 (≈ 136 µM) | 0.2 (≈ 0.273 µM) | > 100 | > 100 | 0.05 (≈ 0.0681 µM) | 0.2 (≈ 0.273 µM) | 0.02 (≈ 0.0273 µM) | activity against Gram-negative bacteria (Grarn-negative bacteria): only weak activity; MIC (EN[…] ATCC 8043): 0.05 µg/mL (≈ 0.0681 µM); MIC [12]: 50 µg/mL (≈ 68.1 µM); MIC [13]: > 100 µg/mL; MIC [14]: > 100 µg/mL; MIC (ESCHERICHIA COLI SS): 0.2 µg/mL (≈ 0.273 µM); MIC [15]: > 100 µg/mL; MIC [16]: 6.2 µg/mL (≈ 8.45 µM); MIC [17]: 0.78 µg/mL (≈ 1.06 µM); MIC [18]: 100 µg/mL (≈ 136 µM); MIC [19]: 0.39 µg/mL (≈ 0.531 µM); MIC [20]: 0.39 µg/mL (≈ 0.531 µM); MIC [21]: > 100 µg/mL; MIC [22]: 0.05 µg/mL (≈ 0.0681 µM); MIC (CANDIDA ALBICANS CCH 442): > 100 µg/mL
CCC1OC(=O)C(C)C(=O)C(C)C(OC2OC(C)CC(N(C)C)C2O)C(C)(OC)CC(C)C2=NC(COCSC)CN3C(=O)OC1(C)C3C2C (stereo not shown) [Example 99] | 32 (≈ 44 µM) | 0.39 (≈ 0.536 µM) | 0.39 (≈ 0.536 µM) | > 100 | 0.05 (≈ 0.0687 µM) | > 100 | > 100 | > 100 | 0.39 (≈ 0.536 µM) | 3.1 (≈ 4.26 µM) | > 100 | > 100 | > 100 | > 100 | 0.39 (≈ 0.536 µM) | > 100 | > 100 | 0.05 (≈ 0.0687 µM) | 0.39 (≈ 0.536 µM) | 0.1 (≈ 0.137 µM) | MIC (EN[…] ATCC 8043): 0.1 µg/mL (≈ 0.137 µM); MIC [12]: > 100 µg/mL; MIC [13]: > 100 µg/mL; MIC [14]: > 100 µg/mL; MIC (ESCHERICHIA COLI SS): 0.78 µg/mL (≈ 1.07 µM); MIC [15]: > 100 µg/mL; MIC [16]: 0.39 µg/mL (≈ 0.536 µM); MIC [17]: 6.2 µg/mL (≈ 8.52 µM); MIC [18]: > 100 µg/mL; MIC [19]: 0.39 µg/mL (≈ 0.536 µM); MIC [23]: 100 µg/mL (≈ 137 µM); MIC [20]: 0.39 µg/mL (≈ 0.536 µM); MIC [21]: > 100 µg/mL; MIC [22]: 0.05 µg/mL (≈ 0.0687 µM); MIC (CANDIDA ALBICANS CCH 442): > 100 µg/mL
